Assay results published in the NIST ThermoML archive (doi:10.1016/j.fluid.2015.07.045).
Numbers after ± are expanded uncertainties.

Tests used:
[1] = 298.15 K; 101.33 kPa; Liquid; Vibrating tube method
[2] = Boiling temperature at pressure P; settings: 101.3 kPa; Liquid; Ebulliometric method (Recirculating still)

| mass density [1] [kg/m3] | Boiling temperature at pressure P [2] [°C] | SMILES |
| --- | --- | --- |
| 1192.8 ± 0.6 | – | C[n+]1ccn(Cc2ccccc2)c1.[Cl-] [1-benzyl-3-methyl-1H-imidazolium chloride] |
| 787.1 ± 0.4 | 64.54 ± 0.1 | CO [methanol] |
| 927.3 ± 0.4 | 57.1 ± 0.1 | COC(C)=O [methyl ethanoate] |

| SMILES | mass density [1] [kg/m3] | Boiling temperature at pressure P [2] [°C] |
| --- | --- | --- |
| CCCCCCn1cc[n+](C)c1.[Cl-] [1-hexyl-3-methylimidazolium chloride] | 1044.3 ± 0.5 | – |
| CCCCCCn1cc[n+](C)c1.[Br-] [3-hexyl-1-methyl-1H-imidazolium bromide] | 1229.2 ± 0.6 | – |
